Test results taken from publication PMC11062894, “Protein-based bandpass filters for controlling cellular signaling with chemical inputs” (Nature Chemical Biology, 2023).

System: GEMS receptors with CBPA11 (BclXL–LD3 and BclXLhigh variants), STAT3-driven SEAP in HEK293T cells
Assay: GEMS SEAP reporter assay, CBPA11 (BclXLhigh, LD3-v and BclXL-v variants) with A-1155463
Type: cell-based
Set-up: key to Raw data (SEAP) / SEAP, replicate values / Raw data of Figure 5b / Raw data Figure 5e / Raw data of Independent repeat of CBPA11-v1 vs CBPA11-v1-LD3v3 / Raw data of Independent repeat of CBPA11-v3 vs CBPA11-v3-LD3v3 / Raw data of Figure 5b, CBPA11-v1-LD3v3 (SEAP reporter raw value, single replicate) / Raw data of Figure 5b, CBPA11-v1 (SEAP reporter raw value, single replicate): SEAP activity in U/L in culture supernatant
Excerpt: To rationally design a CBP responding to a chemical input, we used BclXL as the druglow receptor, LD3 as the designed binder and a designed BclXL variant as the drughigh receptor (referred to as BclXLhigh) to construct a CBP responsive to BclXL inhibitors (Fig. 4a). To design BclXLhigh, we used a multistate design computational protocol described elsewhere[26] […] Thus, BclXLhigh-v(1–3) were chosen as the functional drughigh receptors, resulting in three A-1155463-controlled CBPs (referred to as CBPA11-v(1–3)) (Fig. 4c–e).
HEK293T cells were seeded in a 96-well plate 24 h before transfection. The transfection mix in each well consisted of 3 ng of constitutive human CMV promoter driven mammalian STAT3 expression vector (PhCMV-STAT3-pA), 30 ng of STAT3-induced reporter expression (OStat3-PhCMVmin-SEAP-pA) and 50 ng of expression vectors for each GEMS receptor chain (PSV40-IgK-(drughigh receptor)-EpoRm-IL-6RBm-pA and PSV40-IgK-(druglow receptor-GGGGSX3-LD3)-EpoRm-IL-6RBm-pA). For the specific drughigh receptor and druglow receptor used in the different cellular assays, they are indicated as wild type or with mutations. Then, plasmid DNA was mixed with 50 μl opti-MEM (Thermo Fisher) and 600 ng of polyethyleneimine (Polysciences, catalog no. 24765-1). For drug treatment experiments, drugs were added 12 h post-transfection and incubated with cells for 24 h before the SEAP reporter detection assay.
SEAP activity (U l^−1) in cell culture supernatants was quantified by kinetic measurements at 405 nm (1 minute per measurement for 30 cycles) of absorbance increase due to phosphatase-mediated hydrolysis of para-nitrophenyl phosphate (pNPP).
Binding affinities of SPR drug competition assays were calculated using three-parameter nonlinear regression in GraphPad Prism (v.8.3.0). Representative data of cell assays are presented as individual values and mean values (bars). n = 3 refers to biological replicates. All IC50 or EC50 values of cell assays reported were calculated using four-parameter nonlinear regression ± s.d. Bandpass features of cutoff concentrations and Bandwidth90% were estimated based on the curve fitted using bell-shaped curve nonlinear regression in GraphPad Prism (v.8.3.0). […]
Supplementary Figure 4: Design, screening and validation of BclXLhigh variants. a) Screening of BclXLhigh variants in the GEMS platform. […]
Dissociation constant measurement of BclXLhigh-v(1-3) and LD3. Equilibrium curves are fitted using […]
BclXLhigh-v1 (purple), BclXLhigh-v2 (blue), […]
a) Bcl2high-based bandpass filter designs were developed and to respond to different concentrations of […]
corresponding inhibitor. c) Screening of Bcl2high-based bandpass filter variants in the GEMS platform.
The designed binder LD3 was fused to the druglow-receptor (PSV40-IgK-Bcl2-LD3-EpoRm-IL-6RBm-pA) in one EpoR chain and Bcl2high variants with the insensitive Bcl2 (iBcl2) as control in the other EpoR chain (PSV40-IgK-Bcl2high-EpoRm-IL-6RBm-pA). HEK293T cells were transfected with indicated […]
the mean of six biological replicates ± s.d., overlaid with a scatter dot plot of the original data points.
(1 picture or pasted object on this page, not shown here)
Supplementary Figure 6: Binding affinities and drug resistances of Bcl2high-v(2,4,5) assessed by […]
a) Measurement of dissociation constants for Bcl2high-v(2,4,5) and LD3 interactions. Equilibrium curves […]
Bcl2high-v(2,4,5) measured by SPR. 5 μM of Bcl2 or indicated variants were mixed with 10 μM of […]
Bcl2high-v2 (red), Bcl2high-v4
Supplementary Figure 7: Screening of LD3 variants in CBPA11-v(1-3) and raw data of CBPA11-v(1,3) with LD3-v3 variant. a-c) Screening of LD3 and LD3-v(1-3) variants in complex with BclXL for more sensitive CBPA11-v1 (a), CBPA11-v2 (b), CBPA11-v3 (c) in the GEMS platform. The LD3 variants replaced the role of LD3 (PSV40-IgK-BclXL-LD3-v(1-3)-EpoRm-IL-6RBm-pA) in one EpoR chain and BclXLhigh-v(1-3) in the other EpoR chain (PSV40-IgK-BclXLhigh-V(1-3)-EpoRm-IL-6RBm-pA). HEK293T cells were transfected with […]

[1] = SuppFigure 9a, BclXL, A-1155463 3.16 nM
[2] = SuppFigure 9a, BclXL, A-1155463 100 nM
[3] = SuppFigure 9a, BclXL, A-1155463 316 nM
[4] = SuppFigure 9a, BclXL, A-1155463 1000 nM
[5] = SuppFigure 9a, BclXL, A-1155463 3160 nM
[6] = SuppFigure 9a, BclXL, A-1155463 10000 nM
[7] = SuppFigure 9b, BclXL-v1, A-1155463 1 nM
[8] = SuppFigure 9b, BclXL-v1, A-1155463 3.16 nM
[9] = SuppFigure 9b, BclXL-v1, A-1155463 10 nM
[10] = SuppFigure 9b, BclXL-v1, A-1155463 31.6 nM
[11] = SuppFigure 9b, BclXL-v1, A-1155463 100 nM
[12] = SuppFigure 9b, BclXL-v1, A-1155463 316 nM
[13] = SuppFigure 9b, BclXL-v1, A-1155463 1000 nM
[14] = SuppFigure 9b, BclXL-v1, A-1155463 3160 nM
[15] = SuppFigure 9b, BclXL-v1, A-1155463 10000 nM
[16] = SuppFigure 9b, BclXL-v2, A-1155463 1 nM
[17] = SuppFigure 9b, BclXL-v2, A-1155463 3.16 nM
[18] = SuppFigure 9b, BclXL-v2, A-1155463 10 nM
[19] = SuppFigure 9b, BclXL-v2, A-1155463 31.6 nM
[20] = SuppFigure 9b, BclXL-v2, A-1155463 100 nM
[21] = SuppFigure 9b, BclXL-v2, A-1155463 316 nM
[22] = SuppFigure 9b, BclXL-v2, A-1155463 1000 nM
[23] = SuppFigure 9b, BclXL-v2, A-1155463 3160 nM

CN(C)CC#Cc1ccc(OCCCc2sc(N3CCc4cccc(C(=O)Nc5nc6ccccc6s5)c4C3)nc2C(=O)O)c(F)c1 [A-1155463]
Normalized data (SEAP) [1]: 6.043 | Raw data (SEAP) [1]: 25.9846 | Normalized data (SEAP) [2]: 100 | Raw data (SEAP) [2]: 429.99 | Normalized data (SEAP) [3]: 92.0518 | Raw data (SEAP) [3]: 395.813 | Normalized data (SEAP) [4]: 64.9807 | Raw data (SEAP) [4]: 279.41 | Normalized data (SEAP) [5]: 59.757 | Raw data (SEAP) [5]: 256.949 | Normalized data (SEAP) [6]: 20.582 | Raw data (SEAP) [6]: 88.5006 | Normalized data (SEAP) [7]: 29.2402 | Raw data (SEAP) [7]: 3.306 | Normalized data (SEAP) [8]: 25.4197 | Raw data (SEAP) [8]: 2.874 | Normalized data (SEAP) [9]: 91.2564 | Raw data (SEAP) [9]: 10.3177 | Normalized data (SEAP) [10]: 99.5447 | Raw data (SEAP) [10]: 11.2548 | Normalized data (SEAP) [11]: 88.866 | Raw data (SEAP) [11]: 10.0475 | Normalized data (SEAP) [12]: 80.3713 | Raw data (SEAP) [12]: 9.087 | Normalized data (SEAP) [13]: 71.8768 | Raw data (SEAP) [13]: 8.127 | Normalized data (SEAP) [14]: 100 | Raw data (SEAP) [14]: 11.3063 | Normalized data (SEAP) [15]: 93.1986 | Raw data (SEAP) [15]: 10.5373 | Normalized data (SEAP) [16]: 14.254 | Raw data (SEAP) [16]: 6.039 | Normalized data (SEAP) [17]: 18.0852 | Raw data (SEAP) [17]: 7.662 | Normalized data (SEAP) [18]: 44.9661 | Raw data (SEAP) [18]: 19.0516 | Normalized data (SEAP) [19]: 70.6852 | Raw data (SEAP) [19]: 29.9485 | Normalized data (SEAP) [20]: 100 | Raw data (SEAP) [20]: 42.3689 | Normalized data (SEAP) [21]: 44.6168 | Raw data (SEAP) [21]: 18.9036 | Normalized data (SEAP) [22]: 22.2068 | Raw data (SEAP) [22]: 9.409 | Normalized data (SEAP) [23]: 14.8235 | Raw data (SEAP) [23]: 6.281 | Normalized data (SEAP) (SuppFigure 9b, BclXL-v2, A-1155463 10000 nM): 14.5729
